Laboratory results: patent publication US7674795B2, “Fluorene derivatives, composition containing said derivatives and the use thereof” (Aventis Pharma SA, priority 2005, dated 2010)
pIC50: −log10 of the molar value.

Assays:
Hsp82 = Hsp82 (Saccharomyces cerevisiae, UniProt P02829); assay: PK/LDH enzyme coupling test of the ATPase activity of Hsp82 (NADH decrease at 340 nm); assay type: biochemical; settings: 1 μM Hsp82, 250 μM ATP, 37° C., pyruvate kinase/lactate dehydrogenase coupling, read-out: Hsp82 ATPase IC50
Chain of Hsp82 (P02829 whole entry): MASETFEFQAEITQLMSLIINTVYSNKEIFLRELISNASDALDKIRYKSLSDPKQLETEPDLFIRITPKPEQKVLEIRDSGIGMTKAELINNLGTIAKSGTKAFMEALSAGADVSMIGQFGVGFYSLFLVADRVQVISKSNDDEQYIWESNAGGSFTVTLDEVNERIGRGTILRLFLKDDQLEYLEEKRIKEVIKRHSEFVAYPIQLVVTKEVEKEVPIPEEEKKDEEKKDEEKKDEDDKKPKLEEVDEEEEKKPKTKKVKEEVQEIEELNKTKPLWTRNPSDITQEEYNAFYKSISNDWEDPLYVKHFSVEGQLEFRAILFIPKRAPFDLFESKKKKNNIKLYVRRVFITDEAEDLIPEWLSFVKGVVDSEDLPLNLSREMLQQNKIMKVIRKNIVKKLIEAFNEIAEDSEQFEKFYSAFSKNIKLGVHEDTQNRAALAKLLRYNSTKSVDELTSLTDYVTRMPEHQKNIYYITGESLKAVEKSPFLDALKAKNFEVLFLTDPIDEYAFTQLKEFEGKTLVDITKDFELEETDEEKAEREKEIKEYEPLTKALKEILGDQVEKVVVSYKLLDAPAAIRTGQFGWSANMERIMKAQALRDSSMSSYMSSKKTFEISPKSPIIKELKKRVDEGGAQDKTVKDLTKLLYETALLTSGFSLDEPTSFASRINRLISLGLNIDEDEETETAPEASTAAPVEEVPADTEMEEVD
Method in brief: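 Yeast Hsp82 ATPase was coupled to PK/LDH, with ADP formation followed continuously as NADH loss at 340 nm at 37 °C. The mixture was preincubated 30 min at 37 °C, and the reaction was started with compound at variable concentrations plus Hsp82 at 1 μM. Initial rates (μM ADP/min) came from the tangent slope at origin, expressed as % inhibition.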

| SMILES | melting point | pIC50 (Hsp82) |
| --- | --- | --- |
| Cn1cc(C(=O)NC2c3ccccc3-c3c(-c4nc5ccncc5[nH]4)cccc32)c2cccnc21 (racemic) [Example 101, [4-(3H-imidazo[4,5-c]pyridin-2-yl)-9H-fluoren-9(R,S)-yl]amide of 1-methyl-1H-pyrrolo[2,3-b]pyridine-3-carboxylic acid] | 204 °C (dec.) | 5.00 to 6.00 |
| O=C(NC1c2ccccc2-c2c(-c3nc4ccncc4[nH]3)cccc21)c1cccc2[nH]ncc12 (racemic) [Example 111, [4-(3H-imidazo[4,5-c]pyridin-2-yl)-9H-fluoren-9(R,S)-yl]amide of 1H-indazole-4-carboxylic acid] | 230 to 235 °C | > 6.00 |
| Cc1cc(C(=O)NC2c3ccccc3-c3c(-c4nc5ccncc5[nH]4)cccc32)cc(Cl)n1 (racemic) [Example 123, 2-chloro-N-[4-(3H-imidazo[4,5-c]pyridin-2-yl)-9H-fluoren-9(R,S)-yl]-6-methyl-isonicotinamide] | 250 °C | 5.00 to 6.00 |
| O=C1c2ccccc2-c2c1cccc2-c1nc2cnccc2[nH]1 [Example 1, 4-(3H-imidazo[4,5-c]pyridin-2-yl)-fluoren-9-one] | 236 to 238 °C | 5.00 to 6.00 |
